The supplement of paper PMC10307832

Assays:
Test in all cases: relative viability (nuclei count vs DMSO), 5 days (fraction); higher = more cells survive
A549 = system: A549
Procedure, shortened: (§1)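 Lung cancer cell lines, seeded in 1536-well plates, were treated the following day by pin tool with a single drug or with five library-drug doses (not always all listed) in √10 steps on top of a fixed anchor-drug dose. Cells were fixed and nuclei stained in one step after 5 days, and nuclei were counted. Relative viability is the nuclei count for treated wells divided by that for vehicle wells, reported as medians of duplicate plates.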

Calu-6 = system: Calu-6
Procedure, shortened: as §1

EBC-1 = system: EBC-1
Procedure, shortened: as §1

IA-LM = system: IA-LM
Procedure, shortened: as §1

NCI-H1299 = system: NCI-H1299
Procedure, shortened: as §1

NCI-H1703 = system: NCI-H1703
Procedure, shortened: as §1

NCI-H2009 = system: NCI-H2009
Procedure, shortened: as §1

NCI-H460 = system: NCI-H460
Procedure, shortened: as §1

NCI-H661 = system: NCI-H661
Procedure, shortened: as §1

`NC(=O)Nc1cc(-c2cccc(F)c2)sc1C(=O)N[C@H]1CCCNC1` [AZD7762] + C[C@@H](Oc1cc(-c2cnn(C3CCNCC3)c2)cnc1N)c1c(Cl)ccc(F)c1Cl [Crizotinib] (partner 1 µM) gave a relative viability (A549; first compound 0.01 µM) of 0.795, a relative viability (A549; first compound 0.03162 µM) of 0.821 and a relative viability (A549; first compound 0.1 µM) of 0.775. It also gave a relative viability (A549; first compound 0.3162 µM) of 0.424, a relative viability (A549; first compound 1 µM) of 0.0696 and a relative viability (Calu-6; first compound 0.01 µM) of 0.897. It also gave a relative viability (Calu-6; first compound 0.03162 µM) of 0.813, a relative viability (Calu-6; first compound 0.1 µM) of 0.651 and a relative viability (Calu-6; first compound 0.3162 µM) of 0.162. The relative viability (Calu-6; first compound 1 µM) was 0.0886, the relative viability (EBC-1; first compound 0.01 µM) was 0.199 and the relative viability (EBC-1; first compound 0.03162 µM) was 0.209. It also gave a relative viability (EBC-1; first compound 0.1 µM) of 0.167, a relative viability (EBC-1; first compound 0.3162 µM) of 0.187 and a relative viability (EBC-1; first compound 1 µM) of 0.167. The relative viability (IA-LM; first compound 0.01 µM) was 1.04, the relative viability (IA-LM; first compound 0.03162 µM) was 0.907 and the relative viability (IA-LM; first compound 0.1 µM) was 1.26. The relative viability (IA-LM; first compound 0.3162 µM) was 0.858, the relative viability (IA-LM; first compound 1 µM) was 0.277 and the relative viability (NCI-H1299; first compound 0.01 µM) was 0.966. It also gave a relative viability (NCI-H1299; first compound 0.03162 µM) of 0.975, a relative viability (NCI-H1299; first compound 0.1 µM) of 0.974 and a relative viability (NCI-H1299; first compound 0.3162 µM) of 0.826. It also gave a relative viability (NCI-H1299; first compound 1 µM) of 0.307, a relative viability (NCI-H1703; first compound 0.01 µM) of 0.314 and a relative viability (NCI-H1703; first compound 0.03162 µM) of 0.169. It also gave a relative viability (NCI-H1703; first compound 0.1 µM) of 0.136, a relative viability (NCI-H1703; first compound 0.3162 µM) of 0.0849 and a relative viability (NCI-H1703; first compound 1 µM) of 0.105. For the same compound, the relative viability (NCI-H2009; first compound 0.01 µM) was 1.04, the relative viability (NCI-H2009; first compound 0.03162 µM) was 1.13 and the relative viability (NCI-H2009; first compound 0.1 µM) was 1.07. For the same compound, the relative viability (NCI-H2009; first compound 0.3162 µM) was 0.954, the relative viability (NCI-H2009; first compound 1 µM) was 0.38 and the relative viability (NCI-H460; first compound 0.01 µM) was 1.13. The relative viability (NCI-H460; first compound 0.03162 µM) was 0.879, the relative viability (NCI-H460; first compound 0.1 µM) was 0.758 and the relative viability (NCI-H460; first compound 0.3162 µM) was 0.593. It also gave a relative viability (NCI-H460; first compound 1 µM) of 0.0457, a relative viability (NCI-H661; first compound 0.01 µM) of 0.952 and a relative viability (NCI-H661; first compound 0.03162 µM) of 0.87. It also gave a relative viability (NCI-H661; first compound 0.1 µM) of 1.08, a relative viability (NCI-H661; first compound 0.3162 µM) of 0.99 and a relative viability (NCI-H661; first compound 1 µM) of 0.886.

With `O=C(O)c1ccc(-c2c[nH]c3ncc(-c4ccccc4)cc23)cc1C1CCCC1` + Cc1nc(NC(=O)N2CCC[C@H]2C(N)=O)sc1-c1ccnc(C(C)(C)C(F)(F)F)c1 [Alpelisib] (partner 2 µM) the relative viability (A549; first compound 0.04 µM) was 0.728, the relative viability (A549; first compound 0.1265 µM) was 0.787 and the relative viability (A549; first compound 0.4 µM) was 0.869. For the same compound, the relative viability (A549; first compound 1.265 µM) was 0.499, the relative viability (Calu-6; first compound 0.04 µM) was 1.04 and the relative viability (Calu-6; first compound 0.1265 µM) was 0.978. It also gave a relative viability (Calu-6; first compound 0.4 µM) of 0.825, a relative viability (Calu-6; first compound 1.265 µM) of 0.682 and a relative viability (EBC-1; first compound 0.04 µM) of 0.848. It also gave a relative viability (EBC-1; first compound 0.1265 µM) of 0.719, a relative viability (EBC-1; first compound 0.4 µM) of 0.939 and a relative viability (EBC-1; first compound 1.265 µM) of 0.48. The relative viability (IA-LM; first compound 0.04 µM) was 0.77, the relative viability (IA-LM; first compound 0.1265 µM) was 0.913 and the relative viability (IA-LM; first compound 0.4 µM) was 0.713. The relative viability (IA-LM; first compound 1.265 µM) was 0.737, the relative viability (NCI-H1299; first compound 0.04 µM) was 1 and the relative viability (NCI-H1299; first compound 0.1265 µM) was 1.09. For the same compound, the relative viability (NCI-H1299; first compound 0.4 µM) was 1.05, the relative viability (NCI-H1299; first compound 1.265 µM) was 0.957 and the relative viability (NCI-H1703; first compound 0.1265 µM) was 0.405. For the same compound, the relative viability (NCI-H1703; first compound 0.4 µM) was 0.395, the relative viability (NCI-H1703; first compound 1.265 µM) was 0.332 and the relative viability (NCI-H2009; first compound 0.04 µM) was 1.17. It also gave a relative viability (NCI-H2009; first compound 0.1265 µM) of 1.16, a relative viability (NCI-H2009; first compound 0.4 µM) of 1.09 and a relative viability (NCI-H2009; first compound 1.265 µM) of 0.955. It also gave a relative viability (NCI-H460; first compound 0.04 µM) of 0.518, a relative viability (NCI-H460; first compound 0.1265 µM) of 0.607 and a relative viability (NCI-H460; first compound 0.4 µM) of 0.483. The relative viability (NCI-H460; first compound 1.265 µM) was 0.416, the relative viability (NCI-H661; first compound 0.04 µM) was 0.48 and the relative viability (NCI-H661; first compound 0.1265 µM) was 0.676. It also gave a relative viability (NCI-H661; first compound 0.4 µM) of 0.675 and a relative viability (NCI-H661; first compound 1.265 µM) of 0.703.

In the case of `C=C1C(=O)O[C@@H](CCCCCCCC)[C@@H]1C(=O)O` [C-75] + Cc1nc(NC(=O)N2CCC[C@H]2C(N)=O)sc1-c1ccnc(C(C)(C)C(F)(F)F)c1 [Alpelisib] (partner 2 µM), the relative viability (A549; first compound 0.08 µM) is reported as 0.828, the relative viability (A549; first compound 0.253 µM) is reported as 0.909 and the relative viability (A549; first compound 0.8 µM) is reported as 0.824. For the same compound, the relative viability (A549; first compound 2.53 µM) was 0.579, the relative viability (A549; first compound 8 µM) was 0.716 and the relative viability (Calu-6; first compound 0.08 µM) was 1.04. It also gave a relative viability (Calu-6; first compound 0.253 µM) of 0.926, a relative viability (Calu-6; first compound 0.8 µM) of 0.983 and a relative viability (Calu-6; first compound 2.53 µM) of 0.796. The relative viability (Calu-6; first compound 8 µM) was 0.932, the relative viability (EBC-1; first compound 0.08 µM) was 0.904 and the relative viability (EBC-1; first compound 0.253 µM) was 0.763. The relative viability (EBC-1; first compound 0.8 µM) was 0.792, the relative viability (EBC-1; first compound 2.53 µM) was 0.7 and the relative viability (EBC-1; first compound 8 µM) was 0.712. The relative viability (IA-LM; first compound 0.08 µM) was 0.71, the relative viability (IA-LM; first compound 0.253 µM) was 0.815 and the relative viability (IA-LM; first compound 0.8 µM) was 0.74. It also gave a relative viability (IA-LM; first compound 2.53 µM) of 0.648, a relative viability (IA-LM; first compound 8 µM) of 0.761 and a relative viability (NCI-H1299; first compound 0.08 µM) of 1.04. For the same compound, the relative viability (NCI-H1299; first compound 0.253 µM) was 0.979, the relative viability (NCI-H1299; first compound 0.8 µM) was 1.1 and the relative viability (NCI-H1299; first compound 2.53 µM) was 0.966. It also gave a relative viability (NCI-H1299; first compound 8 µM) of 1.07, a relative viability (NCI-H1703; first compound 0.08 µM) of 0.337 and a relative viability (NCI-H1703; first compound 0.253 µM) of 0.348. For the same compound, the relative viability (NCI-H1703; first compound 0.8 µM) was 0.325, the relative viability (NCI-H1703; first compound 2.53 µM) was 0.28 and the relative viability (NCI-H1703; first compound 8 µM) was 0.327. The relative viability (NCI-H2009; first compound 0.08 µM) was 1.17, the relative viability (NCI-H2009; first compound 0.253 µM) was 1.14 and the relative viability (NCI-H2009; first compound 0.8 µM) was 1.18. The relative viability (NCI-H2009; first compound 2.53 µM) was 1.14, the relative viability (NCI-H2009; first compound 8 µM) was 1.03 and the relative viability (NCI-H460; first compound 0.08 µM) was 0.517. The relative viability (NCI-H460; first compound 0.253 µM) was 0.485, the relative viability (NCI-H460; first compound 0.8 µM) was 0.475 and the relative viability (NCI-H460; first compound 8 µM) was 0.374. The relative viability (NCI-H661; first compound 0.08 µM) was 0.545, the relative viability (NCI-H661; first compound 0.253 µM) was 0.477 and the relative viability (NCI-H661; first compound 0.8 µM) was 0.657. For the same compound, the relative viability (NCI-H661; first compound 2.53 µM) was 0.409 and the relative viability (NCI-H661; first compound 8 µM) was 0.718.
